From the supplement of paper PMC8967900

Legend:
Assay in all cases: selective drug sensitivity score (sDSS, relative to normal bone marrow) (sDSS (score)); higher = more potent and effective on the cell line relative to normal bone marrow cells
Settings in all cases: 72 h
CCRF-HSB2 = system: CCRF-HSB2
CCRF-CEM = system: CCRF-CEM
RPMI-8402 = system: RPMI-8402
KASUMI-10 = system: KASUMI-10
PF-382 = system: PF-382
HAL-01 = system: HAL-01
MHH-CALL-2 = system: MHH-CALL-2
REH = system: REH
MN-60 = system: MN-60
NALM-16 = system: NALM-16
COG-LL-402h = system: COG-LL-402h
RCH-ACV = system: RCH-ACV
MOLT-16 = system: MOLT-16
MHH-CALL-3 = system: MHH-CALL-3
COG-LL-319h = system: COG-LL-319h
KASUMI-9 = system: KASUMI-9
P30-OHKUBO = system: P30-OHKUBO
SUP-B15 = system: SUP-B15
380 = system: 380
COG-LL-394h = system: COG-LL-394h
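Also: ALL cell lines in 384-well plates, five doses spanning 10,000-fold, each plate scaled between vehicle and 100 µmol/L benzalkonium chloride controls, sDSS an adapted area-under-curve metric.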

SMILES | selective drug sensitivity score (CCRF-HSB2) | selective drug sensitivity score (CCRF-CEM) | selective drug sensitivity score (RPMI-8402) | selective drug sensitivity score (KASUMI-10) | selective drug sensitivity score (PF-382) | selective drug sensitivity score (HAL-01) | selective drug sensitivity score (MHH-CALL-2) | selective drug sensitivity score (REH) | selective drug sensitivity score (MN-60) | selective drug sensitivity score (NALM-16) | selective drug sensitivity score (COG-LL-402h) | selective drug sensitivity score (RCH-ACV) | selective drug sensitivity score (MOLT-16) | selective drug sensitivity score (MHH-CALL-3) | selective drug sensitivity score (COG-LL-319h) | selective drug sensitivity score (KASUMI-9) | selective drug sensitivity score (P30-OHKUBO) | selective drug sensitivity score (SUP-B15) | selective drug sensitivity score 380 | selective drug sensitivity score (COG-LL-394h)
Cc1ccc(=O)n(-c2ccccc2)c1 [Pirfenidone] (top concentration 10000 nM) | 0 | 0 | 0 | 0 | 0 | 0 | 0 | 0 | 0 | 0 | 0 | 0 | 0 | 0 | 1.2 | 0 | 0 | 0 | 0 | 0
NCCNc1ccc(NCCN)c2c1C(=O)c1ccncc1C2=O [Pixantrone] (top concentration 10000 nM) | -2.16 | -2.06 | -2.76 | -1.36 | -1.86 | -1.36 | 1.34 | 0.24 | -2.76 | -2.76 | -2.76 | -2.76 | -2.46 | -2.76 | -2.76 | -0.36 | -1.06 | -2.76 | -2.76 | -2.66
c1cc(CN2CCCNCCNCCCNCC2)ccc1CN1CCCNCCNCCCNCC1 [Plerixafor] (top concentration 10000 nM) | 0 | 0 | 0 | 0 | 0 | 0 | 0 | 0.1 | 0 | 0 | 0 | 0 | 0 | 0 | 0 | 0 | 0 | 0 | 0 | 0
O=C(c1ccc(OCCN2CCCCC2)cc1)c1c(-c2ccc(O)cc2)sc2cc(O)ccc12 [Raloxifene] (top concentration 10000 nM) | 2.42 | 1.42 | 1.92 | -2.28 | -0.58 | 1.82 | 0.22 | 4.62 | 1.92 | -2.28 | -1.68 | 0.02 | 1.02 | -2.28 | -2.28 | -0.68 | 1.82 | -2.18 | -2.28 | 0.42
CN(C)C(=O)c1cc2cnc(Nc3ccc(N4CCNCC4)cn3)nc2n1C1CCCC1 [Ribociclib] (top concentration 10000 nM) | 1.48 | 3.08 | 2.98 | 0.08 | 2.88 | 0.38 | 3.68 | -0.42 | -1.62 | 1.48 | 4.58 | 8.08 | 4.88 | 3.18 | 2.18 | 6.38 | 6.58 | 1.58 | -2.02 | -2.02
CN1CCN(CCOc2cc(OC3CCOCC3)c3c(Nc4c(Cl)ccc5c4OCO5)ncnc3c2)CC1 [Saracatinib] (top concentration 10000 nM) | 28.9 | -1.52 | 4.98 | 1.48 | 8.18 | -1.32 | -0.52 | -2.02 | 3.38 | -2.02 | 8.68 | 7.28 | 2.38 | 0.08 | 12.8 | 2.98 | 5.58 | 17 | -2.02 | -2.02
C=CC(=O)Nc1cccc(Nc2nc(Nc3ccc(OCCOC)cc3)ncc2F)c1 [Spebrutinib] (top concentration 1000 nM) | 0.04 | 1.64 | -0.16 | 3.64 | -0.16 | 8.34 | 5.84 | -0.16 | -0.16 | -0.16 | 0.84 | 4.14 | 0.64 | 2.34 | -0.06 | 4.84 | 4.64 | 0.04 | -0.16 | -0.16
C[C@@H]1CN(Cc2ccc(F)cc2)[C@@H](C)CN1C(=O)c1cc2c(C(=O)C(=O)N(C)C)cn(C)c2cc1Cl [Talmapimod] (top concentration 10000 nM) | 0 | 0 | 0.8 | 0 | 0 | 0 | 0 | 2.8 | 0 | 0 | 0 | 4.9 | 0 | 0 | 0 | 0 | 0.2 | 2.8 | 0 | 0.7
C[C@@H](C(=O)O)c1ccc(-c2ccccc2)c(F)c1 [Tarenflurbil] (top concentration 10000 nM) | -0.16 | -0.16 | -0.16 | -0.16 | -0.16 | 4.74 | -0.16 | -0.06 | -0.16 | 0.04 | -0.16 | -0.16 | 5.04 | -0.16 | -0.16 | 6.84 | -0.16 | 0.44 | -0.16 | -0.16
